Data as given in ChEMBL document CHEMBL5252526, “Small Molecule Kinase Inhibitors for the Treatment of Brain Cancer” (J Med Chem, 2016).

Assays:
[1] = Ratio of AUC in brain to plasma in rat at 75 mg/kg, po; format: ADME, organism-based; conditions: brain and plasma, read-out: Ratio AUC
[2] = Ratio of drug concentration in brain to plasma in rat at 3.5 mg/kg, iv; format: ADME, organism-based; conditions: brain and plasma, read-out: BPR
[3] = Ratio of drug concentration in brain to plasma in rat; format: ADME, cell-free; conditions: brain and plasma, read-out: BPR
[4] = Ratio of drug concentration in brain to plasma in mouse; format: ADME, cell-free; conditions: brain and plasma, read-out: BPR
[5] = Ratio of drug concentration in brain to plasma in mouse assessed as unbound fraction; format: ADME, cell-free; conditions: brain and plasma, read-out: K(p,uu,brain)
[6] = Ratio of drug concentration in CSF to plasma in mouse assessed as unbound fraction; format: ADME, tissue-based; conditions: CSF and plasma
[7] = Ratio of AUC (0 to 24 hrs) in brain to plasma in mouse; format: ADME, cell-free; conditions: brain and plasma, read-out: Ratio AUC
[8] = Ratio of drug concentration in brain to plasma in mouse at 75 mg/kg, po; format: ADME, organism-based; conditions: brain and plasma, read-out: BPR
[9] = Ratio of AUC in brain to plasma in rat at 25 mg/kg, po; format: ADME, organism-based; conditions: brain and plasma, read-out: Ratio AUC

SMILES: CC(C)(O)CC(=O)NCCn1ccc2ncnc(Nc3ccc(Oc4cccc(C(F)(F)F)c4)c(Cl)c3)c21 [TAK-285]
- Kp [1]: 0.24

SMILES: CN[C@@H]1C[C@H]2O[C@@](C)([C@@H]1OC)n1c3ccccc3c3c4c(c5c6ccccc6n2c5c31)C(=O)N[C@H]4O [UCN-01]
- Kp [2]: 0.5

SMILES: COc1cc(Nc2c(C#N)cnc3cc(OCCCN4CCN(C)CC4)c(OC)cc23)c(Cl)cc1Cl [BOSUTINIB]
- Kp [3]: 0.4

SMILES: Cc1ccc(C(=O)Nc2ccc(CN3CCN(C)CC3)c(C(F)(F)F)c2)cc1C#Cc1cnc2cccnn12 [PONATINIB]
- Kp [4]: 1.6

SMILES: COc1cc2ncnc(Nc3ccc(F)c(Cl)c3)c2cc1OCCCN1CCOCC1 [GEFITINIB]
- Kp uu [5]: 0.02
- Kp uu [6]: 0.09

SMILES: CCN1CCN(Cc2ccc(Nc3ncc(F)c(-c4cc(F)c5nc(C)n(C(C)C)c5c4)n3)nc2)CC1 [ABEMACICLIB]
- Kp uu [5]: 0.2

SMILES: COc1cc(N2CCC(N3CCN(C)CC3)CC2)ccc1Nc1ncnc(Nc2ccccc2S(=O)(=O)C(C)C)n1 [ASP-3026]
- Kp [7]: 0.72

SMILES: Cc1cc(Nc2ncnc3ccc(NC4=NC(C)(C)CO4)cc23)ccc1Oc1ccn2ncnc2c1 [TUCATINIB]
- Kp [8]: 0.5

SMILES: COc1cc2c(Oc3ccc(NC(=O)C4(C(=O)Nc5ccc(F)cc5)CC4)cc3F)ccnc2cc1OCCCN1CCOCC1 [FORETINIB]
- Kp [4]: 0.2

SMILES: CC[C@H](CO)Nc1nc(NCc2ccccc2)c2ncn(C(C)C)c2n1 [SELICICLIB]
- Kp [9]: 0.3
